The text below walks through data of ChEMBL document CHEMBL5537206 (J Med Chem, 2024).

For orientation: IC50 means the point on the concentration scale where inhibition reaches its midpoint. A lower IC50 goes with higher potency.

Format in all cases: functional, cell-based
The test system of test [1] is Osimertinib-resistant NCI-H1975 cell. The test can be described thus: Antiproliferative activity against human Osimertinib-resistant NCI-H1975 cell (AZDR) incubated for 72 hrs by MTT assay. In general terms: Formazan colour is commonly taken as a measure of viable cells.
A further test deals with NCI-H1975. The test can be described thus: Antiproliferative activity against human NCI-H1975 cells incubated for 72 hrs by MTT assay. The following applies: NCI-H1975, 72 h.
The test system of another test is MCF7. Briefly: Antiproliferative activity against human MCF7 cells incubated for 72 hrs by MTT assay. The settings on record: MCF7, 72 h.

Turning to `C=CC(=O)Nc1cccc(Nc2nc(Nc3cn(CC)nc3C)nc3ccc(Cl)cc23)c1`, the IC50 in test [1] is 2.14 µM; in the test with NCI-H1975, above 20 µM; with MCF7, 10.8 µM.

`C=CC(=O)Nc1cccc(Nc2nc(Nc3ccccc3C)nc3ccc(Cl)cc23)c1`: the IC50 in test [1] was found to be 7.31 µM; in the test with NCI-H1975, 6.58 µM; in the test with MCF7, 8.26 µM.

Turning to `C=CC(=O)Nc1cccc(Nc2nc(Nc3cn[nH]c3)nc3ccc(Cl)cc23)c1`, the IC50 was found to be 4.68 µM in test [1], 2.56 µM in the test on NCI-H1975 and 5.37 µM with MCF7.

Turning to `C=CC(=O)Nc1cccc(Nc2nc(Nc3cnn(C)c3)nc3cc(C)ccc23)c1`, the values for the 50% inhibitory concentration (IC50) (in test [1]; in the test on NCI-H1975; with MCF7) were 3.34 µM, 1.59 µM and 0.52 µM, respectively.

Consider `C=CC(=O)Nc1cccc(Nc2nc(Nc3ccn(C)n3)nc3ccc(Cl)cc23)c1`, for which the IC50 came out at 3.55 µM in test [1], 1.37 µM in the test on NCI-H1975 and 12.4 µM in the test with MCF7.

Regarding `C=CC(=O)Nc1cccc(Nc2nc(Nc3cnn(C)c3)nc3c(F)cccc23)c1`, the IC50 was found to be 3.34 µM in test [1], 2.11 µM in the test on NCI-H1975 and 3.74 µM in the test on MCF7.

Turning to `C=CC(=O)Nc1cccc(Nc2nc(Nc3cnn(C4CCOCC4)c3)nc3ccc(Cl)cc23)c1`, the IC50 in test [1] turned out to be 3.72 µM; in the test with NCI-H1975, 1.4 µM; with MCF7, 2.91 µM.

As for `C=CC(=O)Nc1cccc(Nc2nc(Nc3cnn(C)c3)nc3ccc(C(F)(F)F)cc23)c1`, the 50% inhibitory concentration (IC50) in test [1] amounted to 2.75 µM; in the test with NCI-H1975, 1.56 µM; in the test with MCF7, 18.2 µM.

With `C=CC(=O)Nc1cccc(Nc2nc(Nc3cnn(C)c3)nc3ccc(Cl)cc23)c1`, the half-maximal inhibitory concentration (IC50) was found to be 1.04 µM in test [1], 0.95 µM in the test with NCI-H1975 and 1.23 µM in the test on MCF7.

With `C=CC(=O)Nc1ccccc1Nc1nc(Nc2cnn(C)c2)nc2ccc(Cl)cc12`, the results for the 50% inhibitory concentration (IC50) (in test [1]; in the test with NCI-H1975; with MCF7) were 6.53 µM, 5.63 µM and 4.26 µM, respectively.

In the case of `C=CC(=O)Nc1cccc(Nc2nc(Nc3cnn(C)c3)nc3ccccc23)c1`, the values for the IC50 (in test [1]; in the test on NCI-H1975; with MCF7) were 2.81 µM, 0.94 µM and 4.6 µM, respectively.

In the case of `C=CC(=O)Nc1cccc(Nc2nc(Nc3cnn(-c4ccccc4)c3)nc3ccc(Cl)cc23)c1`, the IC50 in test [1] amounted to 8.13 µM; with NCI-H1975, 10.1 µM; in the test with MCF7, 15.2 µM.

For the molecule `C=CC(=O)Nc1cccc(Nc2nc(Nc3cnn(Cc4ccccc4)c3)nc3ccc(Cl)cc23)c1`, the half-inhibitory concentration (IC50) in test [1] is 3.83 µM; in the test with NCI-H1975, 3.98 µM; with MCF7, 1.3 µM.

Take `C=CC(=O)Nc1cccc(Nc2nc(Nc3cnn(C(C)(C)C)c3)nc3ccc(Cl)cc23)c1`: the IC50 in test [1] stood at 3.94 µM; in the test on NCI-H1975 it was 2.1 µM; in the test on MCF7, 5.64 µM.

With `C=CC(=O)Nc1cccc(Nc2nc(Nc3ccc(C)cc3)nc3ccc(Cl)cc23)c1`, the results for the IC50 (in test [1]; with NCI-H1975; in the test on MCF7) were 6.56 µM, 2.29 µM and 4.24 µM, respectively.

`C=CC(=O)Nc1cccc(Nc2nc(Nc3ccc(-n4cccn4)cc3)nc3ccc(Cl)cc23)c1`: the IC50 in test [1] was found to be 5.84 µM; in the test with NCI-H1975, 1.51 µM; with MCF7, 4.78 µM.

Consider `C=CC(=O)Nc1cccc(Nc2nc(Nc3cnn(CCN4CCOCC4)c3)nc3ccc(Cl)cc23)c1`, for which the IC50 in test [1] is 3.45 µM; in the test on NCI-H1975 it was 1.7 µM; in the test with MCF7, 8.78 µM.

For the molecule `C=CC(=O)Nc1cccc(Nc2nc(Nc3cnn(C)c3)nc3ccc(C)cc23)c1`, the figures for the concentration for half-maximal inhibition (IC50) (in test [1]; in the test on NCI-H1975; with MCF7) were 2.51 µM, 1.86 µM and 1.24 µM, respectively.

Regarding `C=CC(=O)Nc1cccc(Nc2nc(Nc3cnn(C)c3)nc3ccc(OC)cc23)c1`, the concentration for half-maximal inhibition (IC50) in test [1] was found to be 4.64 µM; in the test on NCI-H1975, 1.52 µM; with MCF7, 2.2 µM.

For the molecule `C=CC(=O)Nc1cccc(Nc2nc(Nc3cnn(C)c3)nc3ccc(I)cc23)c1`, the IC50 in test [1] stood at 0.98 µM; with NCI-H1975, 0.75 µM; with MCF7 it was 1.84 µM.

Regarding `C=CC(=O)Nc1ccc(Nc2nc(Nc3cnn(C)c3)nc3ccc(Cl)cc23)cc1`, the IC50 in test [1] worked out at 7.35 µM; with NCI-H1975 it was 7.58 µM; in the test on MCF7 it was 3.58 µM.

Take `C=CC(=O)Nc1cccc(Nc2nc(Nc3cnn(CC(F)(F)F)c3)nc3ccc(Cl)cc23)c1`: the 50% inhibitory concentration (IC50) was determined as 3.55 µM in test [1], 2.15 µM in the test with NCI-H1975 and 6.83 µM with MCF7.

For `C=CC(=O)Nc1cccc(Nc2nc(Nc3ccnn3C)nc3ccc(Cl)cc23)c1`, the figures for the IC50 (in test [1]; in the test on NCI-H1975; in the test on MCF7) were 9.47 µM, 4.25 µM and 6.89 µM, respectively.

For the molecule `C=CC(=O)Nc1cccc(Nc2nc(Nc3cn(C)nc3C)nc3ccc(Cl)cc23)c1`, the concentration for half-maximal inhibition (IC50) was above 20 µM in test [1], 4.05 µM in the test on NCI-H1975 and 15 µM with MCF7.

In the case of `C=CC(=O)Nc1cccc(Nc2nc(Nc3cn(C)nc3C(F)(F)F)nc3ccc(Cl)cc23)c1`, the 50% inhibitory concentration (IC50) in test [1] was 3.36 µM; with NCI-H1975 it was 1.02 µM; in the test on MCF7, 5.72 µM.

As to `C=CC(=O)Nc1cccc(Nc2nc(Nc3cnn(C)c3)nc3ccc(Br)cc23)c1`, the IC50 stood at 2.35 µM in test [1], 1.1 µM in the test with NCI-H1975 and 1.64 µM in the test with MCF7.

With `C=CC(=O)Nc1cccc(Nc2nc(Nc3cnn(C)c3)nc3cccc(F)c23)c1`, the 50% inhibitory concentration (IC50) in test [1] was 3.44 µM; with NCI-H1975, 1.06 µM; in the test on MCF7, 9.16 µM.

Take `C=CC(=O)Nc1cccc(Nc2nc(Nc3cnn(C)c3)nc3cc(C(F)(F)F)ccc23)c1`: the values for the half-inhibitory concentration (IC50) (in test [1]; in the test on NCI-H1975; in the test on MCF7) were 2.62 µM, 1.3 µM and 1.16 µM, respectively.

On to `C=CC(=O)Nc1cccc(Nc2nc(Nc3cnn(C4CCN(C)CC4)c3)nc3ccc(Cl)cc23)c1`, for which the half-maximal inhibitory concentration (IC50) was found to be 4.53 µM in test [1], 2.35 µM in the test on NCI-H1975 and 5.26 µM in the test with MCF7.

On to `C=CC(=O)Nc1cccc(Nc2nc(Nc3c(C)nn(C)c3C)nc3ccc(Cl)cc23)c1`, for which the 50% inhibitory concentration (IC50) worked out at 1.62 µM in test [1], 2.89 µM with NCI-H1975 and 4.4 µM in the test on MCF7.

As for `CCC(=O)Nc1cccc(Nc2nc(Nc3cnn(C)c3)nc3ccc(Cl)cc23)c1`, the IC50 in test [1] was 9.58 µM; in the test with NCI-H1975, 6.35 µM; in the test with MCF7, 4.68 µM.

For `C=CC(=O)Nc1cccc(Nc2nc(Nc3cc(C(F)(F)F)n(C)n3)nc3ccc(Cl)cc23)c1`, the IC50 was determined as 3.45 µM in test [1], 2.36 µM in the test on NCI-H1975 and 10 µM in the test with MCF7.

Turning to `C=CC(=O)Nc1cccc(Nc2nc(Nc3cnn(C)c3)nc3ccc(F)cc23)c1`, the IC50 worked out at 1.52 µM in test [1], 8.76 µM with NCI-H1975 and 2.36 µM in the test with MCF7.

On to `C=CC(=O)Nc1cccc(Nc2nc(Nc3cccc(Br)c3)nc3ccc(Cl)cc23)c1`, for which the IC50 in test [1] amounted to 2.8 µM; in the test on NCI-H1975 it was 2.94 µM; with MCF7 it was 3.58 µM.

With `C=CC(=O)Nc1cccc(Nc2nc(Nc3ccc(N(C)CCN(C)C)cc3)nc3ccc(Cl)cc23)c1`, the half-maximal inhibitory concentration (IC50) was 1.89 µM in test [1], 1.24 µM in the test on NCI-H1975 and 2.53 µM with MCF7.

In the case of `C=CC(=O)Nc1cccc(Nc2nc(Nc3cnn(C)c3)nc3cccc(Cl)c23)c1`, the IC50 in test [1] came out at 2.44 µM; with NCI-H1975, 0.81 µM; with MCF7, 1.85 µM.

On to `C=CC(=O)Nc1cccc(Nc2nc(Nc3cnn(C)c3)nc3cc(F)ccc23)c1`, for which the IC50 came to 17.7 µM in test [1], 1.28 µM in the test on NCI-H1975 and 11.1 µM in the test with MCF7.

As to `C=CC(=O)Nc1cccc(Nc2nc(Nc3cnn(CCOC)c3)nc3ccc(Cl)cc23)c1`, the IC50 in test [1] was 3.71 µM; in the test on NCI-H1975, 3.18 µM; in the test with MCF7 it was 6.56 µM.
